This is an account of results in ChEMBL document CHEMBL1130523, “Design and synthesis of the cartilage protective agent (CPA, Ro32-3555)” (Bioorg Med Chem Lett, 1997).

Series [1] in a line: Oral bioavailability in rat. Format: ADME, organism-based. The settings on record: in vivo.
Series [2] in a line: Partition coefficient (logD). As to conditions: octanol/water. Format: physicochemical.
The species entered for a further series is Bos taurus. Kind of series: Effective activity in protecting bovine nasal cartilage explants against degradation induced by interleukin 1-alpha in efficacy experiments in vitro. Format: functional.
Another series deals with Collagenase. Kind of series: Inhibition of human collagenase (MMP1). It is filed as protein assay.
Series [3] has as its target Matrix metalloproteinase-9 (Homo sapiens, UniProt P14780). In words: Inhibition of human gelatinase B, MMP9.
In the next series the target is Stromelysin-1 (Homo sapiens, UniProt P08254). Kind of series: Inhibition of human stromelysin-1, MMP-3.
A short description of series [4]: Solubility was determined. Format: physicochemical.

Values after ≈ are worked out from the molar mass of the structure shown.

Sequence of Stromelysin-1 (P08254 whole entry): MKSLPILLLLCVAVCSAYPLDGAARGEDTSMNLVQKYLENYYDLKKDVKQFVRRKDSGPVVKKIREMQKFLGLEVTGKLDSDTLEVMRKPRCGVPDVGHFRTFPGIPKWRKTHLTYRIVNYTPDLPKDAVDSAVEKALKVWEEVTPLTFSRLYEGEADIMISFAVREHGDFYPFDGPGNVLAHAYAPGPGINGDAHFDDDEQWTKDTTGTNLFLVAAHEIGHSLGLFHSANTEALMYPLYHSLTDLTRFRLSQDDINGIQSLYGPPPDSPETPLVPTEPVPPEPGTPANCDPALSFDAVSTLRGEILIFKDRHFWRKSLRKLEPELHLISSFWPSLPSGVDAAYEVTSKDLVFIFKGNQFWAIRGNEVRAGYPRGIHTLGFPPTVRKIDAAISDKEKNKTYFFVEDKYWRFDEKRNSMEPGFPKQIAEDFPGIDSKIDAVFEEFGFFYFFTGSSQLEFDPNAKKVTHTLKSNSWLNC
Sequence of Matrix metalloproteinase-9 (P14780 whole entry): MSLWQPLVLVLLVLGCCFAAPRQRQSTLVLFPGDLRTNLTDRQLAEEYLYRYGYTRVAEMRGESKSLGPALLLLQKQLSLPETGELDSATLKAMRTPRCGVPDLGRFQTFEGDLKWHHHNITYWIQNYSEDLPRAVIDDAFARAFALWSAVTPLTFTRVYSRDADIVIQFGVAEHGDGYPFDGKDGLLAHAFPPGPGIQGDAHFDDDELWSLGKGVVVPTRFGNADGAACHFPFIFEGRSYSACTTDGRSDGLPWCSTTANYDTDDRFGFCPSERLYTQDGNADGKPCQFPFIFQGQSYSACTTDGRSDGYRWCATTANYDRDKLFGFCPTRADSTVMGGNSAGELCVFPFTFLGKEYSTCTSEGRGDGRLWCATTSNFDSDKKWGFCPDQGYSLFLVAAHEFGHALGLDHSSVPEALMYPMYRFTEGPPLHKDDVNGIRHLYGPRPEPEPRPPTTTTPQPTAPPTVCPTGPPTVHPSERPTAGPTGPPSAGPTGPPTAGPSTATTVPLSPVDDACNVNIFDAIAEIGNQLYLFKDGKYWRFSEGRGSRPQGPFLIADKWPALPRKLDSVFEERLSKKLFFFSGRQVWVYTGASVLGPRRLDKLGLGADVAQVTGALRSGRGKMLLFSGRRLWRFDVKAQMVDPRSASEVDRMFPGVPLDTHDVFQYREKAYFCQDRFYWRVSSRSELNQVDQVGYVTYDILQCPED

Consider `CC(C)C[C@@H](C(=O)N1CCCCC1)[C@@H](CN1C(=O)N(C)C(C)(C)C1=O)C(=O)NO`, for which, in series [1], the bioavailability was found to be 30%. The compound further registered a logD in series [2] of 0.6. The IC50 in the series filed under Bos taurus is < 100 nM; on Collagenase, 10.1 nM; in series [3] it was 237 nM; against Stromelysin-1 it was 2180 nM. The solubility in series [4] was > 100 mg/mL.

`CNC(=O)[C@H](NC(=O)[C@@H](CC(=O)NO)CC(C)C)C(C)(C)C` registered a bioavailability in series [1] of 3%. Further, the values for the IC50 (on Collagenase; in series [3]; on Stromelysin-1) were 4.9 nM, 10.4 nM and 160 nM, respectively. Besides, in series [4], the concentration in solution (solubility) came to 0.8 mg/mL (≈ 2.54 mM).

With `CN1C(=O)N(C[C@@H](C(=O)NO)[C@@H](CC2CCCC2)C(=O)N2CCCCC2)C(=O)C1(C)C`, the bioavailability in series [1] is 25%. Further, the logD in series [2] amounted to 0.6. In addition, the figures for the IC50 (in the series listed under Bos taurus; in series [3]) were < 100 nM and 59 nM, respectively. The compound also had a solubility in series [4] of 73 mg/mL (≈ 167 mM).

Take `CNC(=O)[C@H](NC(=O)[C@H](CC(C)C)[C@@H](C)C(=O)NO)C(C)(C)C`: the bioavailability in series [1] was 2.7%. The IC50 on Collagenase is 2.6 nM; in series [3], 2.4 nM; against Stromelysin-1 it was 47 nM.

Compound `CNC(=O)[C@H](NC(=O)[C@H](CC(C)C)[C@@H](CN1C(=O)c2ccccc2C1=O)C(=O)NO)C(C)(C)C` displayed a bioavailability in series [1] of 1%. Moreover, the IC50 in series [3] stood at 4.3 nM; against Stromelysin-1, 9.1 nM.

`CNC(=O)[C@H](NC(=O)C(CC(C)C)C(CN1C(=O)N(C)C(C)(C)C1=O)C(=O)NO)C(C)(C)C` (single isomer, unassigned) registered a bioavailability in series [1] of 1.5%. The results for the IC50 (against Collagenase; in series [3]) were 1 nM and 2.8 nM, respectively.
